# Columns and labels:
# Set-up in all cases: scale not given: the % may be the effect or the level left
# [1] = biological target: Tyrosine-protein kinase Srms (Homo sapiens) (UniProt Q9H3Y6); assay: Inhibition of human SRMS assessed as enzyme activity at 1 uM using poly[Glu:Tyr] (4:1) as substrate preincubated for 20 mins followed by [gamma-33P]-ATP addition and measured after 120 mins by radiometric Hot-SpotSM Kinase assay relative to control
# [2] = biological target: Calcium/calmodulin-dependent protein kinase type 1D (Homo sapiens) (UniProt Q8IU85); assay: Inhibition of human CAMK1d assessed as enzyme activity at 1 uM using KKALRRQETVDAL as substrate preincubated for 20 mins followed by [gamma-33P]-ATP addition and measured after 120 mins by radiometric Hot-SpotSM Kinase assay relative to control
# [3] = biological target: Serine/threonine-protein kinase N2 (Homo sapiens) (UniProt Q16513); assay: Inhibition of human PKN2 assessed as enzyme activity at 1 uM using KKLNRTLSVA as substrate preincubated for 20 mins followed by [gamma-33P]-ATP addition and measured after 120 mins by radiometric Hot-SpotSM Kinase assay relative to control
# [4] = biological target: Serine/threonine-protein kinase SIK1 (Homo sapiens) (UniProt P57059); assay: Inhibition of human SIK1 assessed as enzyme activity at 1 uM using AMARAASAAALARRR as substrate preincubated for 20 mins followed by [gamma-33P]-ATP addition and measured after 120 mins by radiometric Hot-SpotSM Kinase assay relative to control
# [5] = biological target: Serine/threonine-protein kinase/endoribonuclease IRE1 (Homo sapiens) (UniProt O75460); assay: Inhibition of human ERN1 assessed as enzyme activity at 1 uM using myelin basic protein as substrate preincubated for 20 mins followed by [gamma-33P]-ATP addition and measured after 120 mins by radiometric Hot-SpotSM Kinase assay relative to control
# [6] = biological target: T1, Megakaryocyte-associated tyrosine-protein kinase (Homo sapiens) (UniProt P42679); assay: Inhibition of human CTK/MATK assessed as enzyme activity at 1 uM using poly[Glu:Tyr] (4:1) as substrate preincubated for 20 mins followed by [gamma-33P]-ATP addition and measured after 120 mins by radiometric Hot-SpotSM Kinase assay relative to control
# T1 sequence (whole entry): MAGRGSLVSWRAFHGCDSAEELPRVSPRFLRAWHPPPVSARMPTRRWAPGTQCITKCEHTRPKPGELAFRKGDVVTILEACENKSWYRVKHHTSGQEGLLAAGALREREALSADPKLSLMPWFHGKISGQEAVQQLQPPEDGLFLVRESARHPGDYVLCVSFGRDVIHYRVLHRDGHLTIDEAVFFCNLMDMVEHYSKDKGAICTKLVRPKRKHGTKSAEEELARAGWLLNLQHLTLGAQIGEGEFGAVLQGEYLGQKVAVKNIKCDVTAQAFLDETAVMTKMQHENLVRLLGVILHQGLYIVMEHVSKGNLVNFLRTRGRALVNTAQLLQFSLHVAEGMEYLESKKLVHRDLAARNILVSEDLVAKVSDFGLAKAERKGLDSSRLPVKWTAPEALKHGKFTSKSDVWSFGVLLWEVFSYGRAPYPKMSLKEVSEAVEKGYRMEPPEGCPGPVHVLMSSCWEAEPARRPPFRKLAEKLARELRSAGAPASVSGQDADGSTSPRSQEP
# [7] = biological target: Cyclin-dependent kinase 4/cyclin D1 (Homo sapiens) (UniProt P11802+P24385); assay: Inhibition of human CDK4/cyclin D1 assessed as enzyme activity at 1 uM using RB Protein as substrate preincubated for 20 mins followed by [gamma-33P]-ATP addition and measured after 120 mins by radiometric Hot-SpotSM Kinase assay relative to control; assay type: protein-complex assay
# [8] = biological target: T2, Serine/threonine-protein kinase BRSK1 (Homo sapiens) (UniProt Q8TDC3); assay: Inhibition of human BRSK1 assessed as enzyme activity at 1 uM using KKKVSRSGLYRSPSMPENLNRPR as substrate preincubated for 20 mins followed by [gamma-33P]-ATP addition and measured after 120 mins by radiometric Hot-SpotSM Kinase assay relative to control
# T2 sequence (whole entry): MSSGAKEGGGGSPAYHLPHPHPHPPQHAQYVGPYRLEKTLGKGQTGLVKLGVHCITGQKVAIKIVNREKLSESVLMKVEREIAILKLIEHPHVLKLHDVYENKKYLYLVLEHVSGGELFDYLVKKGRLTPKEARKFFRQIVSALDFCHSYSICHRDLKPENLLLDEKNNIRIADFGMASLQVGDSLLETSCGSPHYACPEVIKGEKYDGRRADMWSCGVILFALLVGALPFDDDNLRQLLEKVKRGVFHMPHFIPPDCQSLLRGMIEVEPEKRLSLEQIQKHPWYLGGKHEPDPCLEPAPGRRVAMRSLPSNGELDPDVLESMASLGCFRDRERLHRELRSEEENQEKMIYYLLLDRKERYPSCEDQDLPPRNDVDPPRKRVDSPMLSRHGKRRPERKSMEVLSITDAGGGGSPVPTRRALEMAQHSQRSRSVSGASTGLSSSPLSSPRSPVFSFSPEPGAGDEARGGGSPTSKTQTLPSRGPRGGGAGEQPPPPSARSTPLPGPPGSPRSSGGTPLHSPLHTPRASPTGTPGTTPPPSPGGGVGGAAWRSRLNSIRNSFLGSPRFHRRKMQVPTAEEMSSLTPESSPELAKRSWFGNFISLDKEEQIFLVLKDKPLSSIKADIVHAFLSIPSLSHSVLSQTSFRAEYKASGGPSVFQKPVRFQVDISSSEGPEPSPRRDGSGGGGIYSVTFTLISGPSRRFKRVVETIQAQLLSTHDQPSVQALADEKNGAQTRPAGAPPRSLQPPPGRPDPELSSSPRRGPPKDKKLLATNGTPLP
# [9] = biological target: Tyrosine-protein kinase Fer (Homo sapiens) (UniProt P16591); assay: Inhibition of human FER assessed as enzyme activity at 1 uM using poly[Glu:Tyr] (4:1) as substrate preincubated for 20 mins followed by [gamma-33P]-ATP addition and measured after 120 mins by radiometric Hot-SpotSM Kinase assay relative to control
# Tyrosine-protein kinase Fer (Homo sapiens), sequence (P16591 whole entry, looked up): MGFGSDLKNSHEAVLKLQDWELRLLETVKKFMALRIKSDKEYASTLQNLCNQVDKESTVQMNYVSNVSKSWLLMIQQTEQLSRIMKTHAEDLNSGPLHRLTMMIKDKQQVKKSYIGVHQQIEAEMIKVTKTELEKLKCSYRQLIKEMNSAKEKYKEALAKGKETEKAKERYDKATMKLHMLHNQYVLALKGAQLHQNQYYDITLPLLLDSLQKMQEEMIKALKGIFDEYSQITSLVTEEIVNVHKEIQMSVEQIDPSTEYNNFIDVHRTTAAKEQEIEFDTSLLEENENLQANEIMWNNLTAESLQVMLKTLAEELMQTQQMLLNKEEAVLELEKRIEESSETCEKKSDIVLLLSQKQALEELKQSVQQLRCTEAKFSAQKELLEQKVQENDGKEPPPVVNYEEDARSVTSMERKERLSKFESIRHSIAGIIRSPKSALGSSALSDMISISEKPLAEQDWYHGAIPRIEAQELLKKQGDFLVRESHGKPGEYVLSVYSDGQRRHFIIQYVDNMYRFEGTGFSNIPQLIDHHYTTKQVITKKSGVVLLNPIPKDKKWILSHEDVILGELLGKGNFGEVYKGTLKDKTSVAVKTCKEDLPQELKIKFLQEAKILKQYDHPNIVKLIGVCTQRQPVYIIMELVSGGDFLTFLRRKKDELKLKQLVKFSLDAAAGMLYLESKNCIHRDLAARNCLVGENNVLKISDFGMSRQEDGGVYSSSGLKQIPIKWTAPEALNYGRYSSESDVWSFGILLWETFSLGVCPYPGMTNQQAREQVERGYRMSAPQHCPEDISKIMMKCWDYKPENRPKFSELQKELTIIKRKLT
# Tyrosine-protein kinase Srms (Homo sapiens), sequence (Q9H3Y6 whole entry): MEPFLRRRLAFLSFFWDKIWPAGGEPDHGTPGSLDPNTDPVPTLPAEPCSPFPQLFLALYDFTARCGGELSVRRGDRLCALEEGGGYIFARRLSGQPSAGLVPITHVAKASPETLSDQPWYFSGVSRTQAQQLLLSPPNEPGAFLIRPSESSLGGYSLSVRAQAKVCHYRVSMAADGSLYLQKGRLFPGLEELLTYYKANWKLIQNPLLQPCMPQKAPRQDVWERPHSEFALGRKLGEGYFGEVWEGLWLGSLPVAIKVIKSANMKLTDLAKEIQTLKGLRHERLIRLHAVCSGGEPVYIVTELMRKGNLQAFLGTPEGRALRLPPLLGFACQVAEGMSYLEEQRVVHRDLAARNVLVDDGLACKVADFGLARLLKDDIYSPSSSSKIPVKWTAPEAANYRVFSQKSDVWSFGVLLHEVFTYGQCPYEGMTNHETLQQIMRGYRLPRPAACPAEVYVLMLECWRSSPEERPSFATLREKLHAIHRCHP
# Serine/threonine-protein kinase/endoribonuclease IRE1 (Homo sapiens), sequence (O75460 19-977 limits assumed): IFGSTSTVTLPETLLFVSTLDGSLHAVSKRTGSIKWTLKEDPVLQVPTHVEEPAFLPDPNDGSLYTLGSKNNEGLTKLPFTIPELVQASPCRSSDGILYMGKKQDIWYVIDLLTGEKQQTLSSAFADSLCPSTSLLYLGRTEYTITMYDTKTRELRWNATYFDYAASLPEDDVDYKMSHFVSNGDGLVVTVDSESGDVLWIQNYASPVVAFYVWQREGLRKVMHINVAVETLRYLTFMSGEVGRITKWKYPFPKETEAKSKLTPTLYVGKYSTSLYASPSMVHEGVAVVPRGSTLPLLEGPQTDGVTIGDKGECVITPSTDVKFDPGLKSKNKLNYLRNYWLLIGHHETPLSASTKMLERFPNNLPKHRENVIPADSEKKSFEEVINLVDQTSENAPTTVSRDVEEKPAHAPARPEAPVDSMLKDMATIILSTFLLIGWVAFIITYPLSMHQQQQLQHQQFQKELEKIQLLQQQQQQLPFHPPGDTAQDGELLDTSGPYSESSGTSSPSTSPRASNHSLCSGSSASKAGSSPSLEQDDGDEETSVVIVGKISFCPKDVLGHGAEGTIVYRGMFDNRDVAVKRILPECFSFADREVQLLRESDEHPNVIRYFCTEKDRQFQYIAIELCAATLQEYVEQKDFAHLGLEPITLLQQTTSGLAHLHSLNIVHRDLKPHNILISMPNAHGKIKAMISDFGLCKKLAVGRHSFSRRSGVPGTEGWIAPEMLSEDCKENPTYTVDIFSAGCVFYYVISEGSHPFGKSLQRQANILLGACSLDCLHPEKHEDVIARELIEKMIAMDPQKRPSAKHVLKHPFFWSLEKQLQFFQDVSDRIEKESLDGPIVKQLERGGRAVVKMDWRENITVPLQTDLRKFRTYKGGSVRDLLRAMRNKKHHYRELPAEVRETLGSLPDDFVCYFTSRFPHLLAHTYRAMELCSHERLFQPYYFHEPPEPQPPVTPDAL
# Serine/threonine-protein kinase N2 (Homo sapiens), sequence (Q16513 whole entry, looked up): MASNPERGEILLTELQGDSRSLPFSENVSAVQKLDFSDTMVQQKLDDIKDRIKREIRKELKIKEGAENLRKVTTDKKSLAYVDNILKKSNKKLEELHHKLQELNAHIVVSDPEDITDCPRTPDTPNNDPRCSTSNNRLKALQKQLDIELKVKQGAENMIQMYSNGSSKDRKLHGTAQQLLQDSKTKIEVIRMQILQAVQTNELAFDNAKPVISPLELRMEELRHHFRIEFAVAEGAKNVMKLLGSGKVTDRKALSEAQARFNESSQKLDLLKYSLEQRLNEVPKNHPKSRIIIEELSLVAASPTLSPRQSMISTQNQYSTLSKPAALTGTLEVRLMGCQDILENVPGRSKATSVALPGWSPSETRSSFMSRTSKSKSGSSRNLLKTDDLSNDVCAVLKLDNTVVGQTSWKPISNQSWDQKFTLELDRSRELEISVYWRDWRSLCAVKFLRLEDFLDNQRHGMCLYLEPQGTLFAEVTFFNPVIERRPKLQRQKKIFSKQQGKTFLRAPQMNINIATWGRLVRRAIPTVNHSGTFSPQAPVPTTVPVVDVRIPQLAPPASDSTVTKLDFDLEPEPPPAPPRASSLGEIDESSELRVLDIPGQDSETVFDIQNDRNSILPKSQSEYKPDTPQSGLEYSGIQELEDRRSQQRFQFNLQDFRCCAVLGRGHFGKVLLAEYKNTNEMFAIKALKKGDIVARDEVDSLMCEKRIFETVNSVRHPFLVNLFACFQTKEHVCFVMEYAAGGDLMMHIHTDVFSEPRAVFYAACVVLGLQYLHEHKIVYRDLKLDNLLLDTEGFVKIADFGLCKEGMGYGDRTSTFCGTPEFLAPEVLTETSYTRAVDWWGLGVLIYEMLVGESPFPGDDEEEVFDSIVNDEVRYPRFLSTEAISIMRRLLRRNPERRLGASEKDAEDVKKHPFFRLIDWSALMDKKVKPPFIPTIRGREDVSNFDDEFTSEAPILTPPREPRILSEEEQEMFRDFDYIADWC
# Calcium/calmodulin-dependent protein kinase type 1D (Homo sapiens), sequence (Q8IU85 whole entry, looked up): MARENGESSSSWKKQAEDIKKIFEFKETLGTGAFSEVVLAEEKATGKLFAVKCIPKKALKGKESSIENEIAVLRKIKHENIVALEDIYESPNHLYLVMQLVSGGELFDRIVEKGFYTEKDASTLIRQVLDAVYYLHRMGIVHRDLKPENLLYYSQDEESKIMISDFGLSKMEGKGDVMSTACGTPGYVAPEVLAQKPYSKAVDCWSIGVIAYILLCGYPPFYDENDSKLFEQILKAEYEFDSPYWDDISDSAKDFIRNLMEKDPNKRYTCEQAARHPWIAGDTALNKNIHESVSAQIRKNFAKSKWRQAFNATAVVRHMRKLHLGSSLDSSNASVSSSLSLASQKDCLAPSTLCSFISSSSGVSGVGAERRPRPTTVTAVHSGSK
# Serine/threonine-protein kinase SIK1 (Homo sapiens), sequence (P57059 whole entry): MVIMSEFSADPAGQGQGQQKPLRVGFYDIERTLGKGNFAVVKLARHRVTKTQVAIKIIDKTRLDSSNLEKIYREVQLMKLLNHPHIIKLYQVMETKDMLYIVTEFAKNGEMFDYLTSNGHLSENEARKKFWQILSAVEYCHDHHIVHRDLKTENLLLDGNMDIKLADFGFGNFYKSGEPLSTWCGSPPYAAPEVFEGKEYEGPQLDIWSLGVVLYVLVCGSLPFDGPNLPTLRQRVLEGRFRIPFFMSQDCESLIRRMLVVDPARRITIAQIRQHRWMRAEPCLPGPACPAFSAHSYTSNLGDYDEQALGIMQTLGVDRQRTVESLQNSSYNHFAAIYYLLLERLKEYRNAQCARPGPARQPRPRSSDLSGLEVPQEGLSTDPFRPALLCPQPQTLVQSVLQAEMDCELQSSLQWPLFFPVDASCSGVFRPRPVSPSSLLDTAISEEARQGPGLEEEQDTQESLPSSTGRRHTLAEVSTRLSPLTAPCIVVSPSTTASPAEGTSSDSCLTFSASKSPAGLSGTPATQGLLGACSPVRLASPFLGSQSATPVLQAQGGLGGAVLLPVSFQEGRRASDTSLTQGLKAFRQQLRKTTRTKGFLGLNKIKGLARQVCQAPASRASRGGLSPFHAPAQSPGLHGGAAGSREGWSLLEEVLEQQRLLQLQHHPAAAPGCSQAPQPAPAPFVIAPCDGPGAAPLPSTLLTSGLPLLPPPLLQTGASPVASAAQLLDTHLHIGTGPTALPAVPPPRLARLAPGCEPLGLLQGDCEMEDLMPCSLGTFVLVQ
SMILES,Activity [1],Activity [2],Activity [3],Activity [4],Activity [5],Activity [6],Activity [7],Activity [8],Activity [9]
CC[C@H](Nc1ncnc2[nH]cnc12)c1nc2cccc(F)c2c(=O)n1-c1ccccc1,102%,98.8%,84.7%,95.5%,96.4%,105%,108%,89.1%,97.2%
C[C@H](Nc1ncnc2nc[nH]c12)c1cc2cccc(Cl)c2c(=O)n1-c1ccccc1,100%,96%,84.5%,95.7%,97.3%,105%,110%,92.5%,91.7%
CC(C)Oc1ccc(-c2nn([C@@H](C)c3oc4ccc(F)cc4c(=O)c3-c3cccc(F)c3)c3ncnc(N)c23)cc1F [UMBRALISIB],105%,99.1%,84.4%,98.2%,91.6%,106%,104%,87.9%,94.5%
